As a reminder, the IC50 is the concentration needed to halve the response being measured. Read a low IC50 as inhibition by little substance.

The target in one experiment is KRAS G12C (Homo sapiens (Human), UniProt P01116, C118A/G12C). As to the kind of experiment: 2 h coupled exchange assay. The note with it: Avg 2 h Coupled exchange IC50, 2 h compound pre-incubation. Type of experiment: biochemical. As for the experimental part: The term “2 h coupled exchange assay” or “20 h coupled exchange assay” as used herein refers to the assay described in the Section entitled “BIOLOGICAL EVALUATION.”

Experiment [1] deals with MIA PaCa-2 (human pancreatic carcinoma) cells. Briefly: Cell Viability Assay (CellTiter-Glo), MIA PaCa-2. Type of experiment: cell-based. As for the experimental part: Serially-diluted compound or DMSO was added to the cells, and plates were incubated at 37° C., 5% CO2 for 72 h. Cell viability was measured using a CellTiter-Glo® Luminescent Cell Viability Assay kit (Promega) according to the manufacturer's protocol. The luminescence signal of treated samples was normalized to DMSO control, and data were analyzed using a 4-parameter logistic model to calculate IC50 values.
In general terms: In ATP-based viability assays light output follows the ATP content of the culture.

Experiment [2] concerns A549 (human lung carcinoma) cells. As to the kind of experiment: Cell Viability Assay (CellTiter-Glo), A549. Type of experiment: cell-based. In outline: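 RPMI 1640/10% FBS; seed 1.67E+04 cells/mL, o/n 37° C., 5% CO2; serial-dilution cmpd 72 h; CellTiter-Glo luminescence vs DMSO; 4-parameter logistic fit → IC50.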
The mark [3] stands for this setting: SOS-mediated nucleotide exchange.

Chain of KRAS G12C (P01116 other isoform, or with tags, fused parts or gaps G12C/C118A): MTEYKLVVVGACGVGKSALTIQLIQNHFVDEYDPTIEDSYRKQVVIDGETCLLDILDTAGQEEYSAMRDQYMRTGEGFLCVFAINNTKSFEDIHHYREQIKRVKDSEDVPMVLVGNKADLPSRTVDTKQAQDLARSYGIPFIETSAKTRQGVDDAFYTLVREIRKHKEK

Take `C=CC(=O)N1CC2(CCN(c3nc4c(c(-c5c(C)ccc6cnn(C)c56)c3C)CCN(C3(C)COC3)C4)C2)C1` [Example 36-1, 1-(6-(4-(1,6-dimethyl-1H-indazol-7-yl)-3-methyl-7-(3-methyl-3-oxetanyl)-5,6,7,8-tetrahydro-1,7-naphthyridin-2-yl)-2,6-diazaspiro[3.4]octan-2-yl)-2-propen-1-one]: the IC50 against KRAS G12C is 589 nM; in experiment [1] (Homo sapiens, MIA PaCa-2, 72 h), 335 nM; in experiment [2] (Homo sapiens, A549, 72 h) it was 14600 nM.
As for `C=CC(=O)N1CC2(CCN(c3nc4c(c(-c5c(C)ccc6[nH]ncc56)c3C#N)C[C@H]3C[C@@H]4C3(C)C)C2)C1` (single isomer, unassigned) [Example 13-115], the IC50 against KRAS G12C (setting [3]) is 12 nM; in experiment [1] (Homo sapiens, MIA PaCa-2, 72 h), 9 nM; in experiment [2] (Homo sapiens, A549, 72 h) it was over 5000 nM.
Turning to `C=CC(=O)N1CC2(CCN(c3nc4cc(-c5cncs5)ccc4c(-c4ccccc4F)c3C#N)C2)C1` [Example 20-19, 4-(2-fluorophenyl)-2-(2-(2-propenoyl)-2,6-diazaspiro[3.4]octan-6-yl)-7-(1,3-thiazol-5-yl)-3-quinolinecarbonitrile], the IC50 on KRAS G12C came to 325 nM; in experiment [1] (Homo sapiens, MIA PaCa-2, 72 h), 2070 nM; in experiment [2] (Homo sapiens, A549, 72 h) it was 4770 nM.
The like results for `C=CC(=O)N1CC2(CCN(c3nc4cc(-c5scnc5C)cnc4c(-c4ccccc4Cl)c3C#N)C2)C1` [Example 20-7, 4-(2-chlorophenyl)-7-(4-methyl-1,3-thiazol-5-yl)-2-(2-(2-propenoyl)-2,6-diazaspiro[3.4]octan-6-yl)-1,5-naphthyridine-3-carbonitrile] were, in that order, 131 nM, 534 nM and over 5000 nM.
The like results for `C=CC(=O)N1CC2(CCN(c3nc4c(c(-c5c(C)cccc5F)c3C#N)CCC(c3scnc3C)=C4)C2)C1` [Example 23-48, 4-(2-fluoro-6-methylphenyl)-7-(4-methyl-1,3-thiazol-5-yl)-2-(2-(2-propenoyl)-2,6-diazaspiro[3.4]octan-6-yl)-5,6-dihydro-3-quinolinecarbonitrile] were, in that order, 112 nM, 761 nM and 3430 nM.
As to `C=CC(=O)N1CC2(CCN(c3nc4c(c(-c5cc(O)ccc5Cl)n3)CCCC4)C2)C1` [Example 1-18, 1-(6-(4-(2-chloro-5-hydroxyphenyl)-5,6,7,8-tetrahydro-2-quinazolinyl)-2,6-diazaspiro[3.4]octan-2-yl)-2-propen-1-one], the 50% inhibitory concentration (IC50) at KRAS G12C (setting [3]) was 8460 nM; in experiment [1] (Homo sapiens, MIA PaCa-2, 72 h) it was 8670 nM; in experiment [2] (Homo sapiens, A549, 72 h), 9460 nM.
The like results for `C=CC(=O)N1CC2(CCN(c3nc4c(c(-c5c(C)ccc6[nH]ncc56)c3C#N)COC3(CCOCC3)C4)C2)C1` [Example 13-50, 4′-(5-methyl-1H-indazol-4-yl)-2′-(2-(2-propenoyl)-2,6-diazaspiro[3.4]octan-6-yl)-2,3,5,5′,6,8′-hexahydrospiro[pyran-4,7′-pyrano[4,3-b]pyridine]-3′-carbonitrile] were, in that order, 76 nM, 198 nM and over 5000 nM.
On to `C=CC(=O)N1CC2(CCN(c3nc4c(c(-c5cc(O)c(F)cc5Cl)c3C#N)C[C@H]3C[C@@H]4C3(C)C)C2)C1` [Example 14-84, (1R,9R)-6-(2-chloro-4-fluoro-5-hydroxyphenyl)-10,10-dimethyl-4-(2-(2-propenoyl)-2,6-diazaspiro[3.4]octan-6-yl)-3-azatricyclo[7.1.1.0^2,7]undeca-2,4,6-triene-5-carbonitrile], for which the concentration for half-maximal inhibition (IC50) at KRAS G12C is 144 nM; in experiment [1] (Homo sapiens, MIA PaCa-2, 72 h) it was 2150 nM; in experiment [2] (Homo sapiens, A549, 72 h) it was over 5000 nM.
Regarding `C=CC(=O)N1CC2(CCN(c3nc4c(c(-c5ccc(F)cc5F)c3C)CC[C@@H](c3c(C)cnn3C)C4)C2)C1` [Example 14-93, 1-(6-((7R)-4-(2,4-difluorophenyl)-7-(1,4-dimethyl-1H-pyrazol-5-yl)-3-methyl-5,6,7,8-tetrahydro-2-quinolinyl)-2,6-diazaspiro[3.4]octan-2-yl)-2-propen-1-one], the half-inhibitory concentration (IC50) against KRAS G12C was found to be 134 nM; in experiment [1] (Homo sapiens, MIA PaCa-2, 72 h), 352 nM; in experiment [2] (Homo sapiens, A549, 72 h), 12400 nM.
Consider `C=CC(=O)N1CC2(CCN(c3nc4c(c(-c5cc(OC)ccc5F)c3C#N)CCC(c3scnc3C)=C4)C2)C1` [Example 23-38, 4-(2-fluoro-5-methoxyphenyl)-7-(4-methyl-1,3-thiazol-5-yl)-2-(2-(2-propenoyl)-2,6-diazaspiro[3.4]octan-6-yl)-5,6-dihydro-3-quinolinecarbonitrile], for which the IC50 was determined as 135 nM against KRAS G12C; 1540 nM in experiment [1] (Homo sapiens, MIA PaCa-2, 72 h); 8010 nM in experiment [2] (Homo sapiens, A549, 72 h).
As to `C=CC(=O)N1CC2(CCN(c3nc4c(c(-c5c(N)cccc5F)c3C#N)COC(C)(C)C4)C2)C1` [Example 13-157, 4-(2-amino-6-fluorophenyl)-7,7-dimethyl-2-(2-(2-propenoyl)-2,6-diazaspiro[3.4]octan-6-yl)-7,8-dihydro-5H-pyrano[4,3-b]pyridine-3-carbonitrile], the half-maximal inhibitory concentration (IC50) on KRAS G12C (setting [3]) amounted to 555 nM; in experiment [1] (Homo sapiens, MIA PaCa-2, 72 h) it was 357 nM; in experiment [2] (Homo sapiens, A549, 72 h) it was 16200 nM.
For `C=CC(=O)N1CC2(CCN(c3nc4cc(OC)ccc4c(-c4c(C)ccc5[nH]ncc45)c3C#N)C2C)C1` [Example 14-21, 7-methoxy-4-(5-methyl-1H-indazol-4-yl)-2-((5R)-5-methyl-2-(2-propenoyl)-2,6-diazaspiro[3.4]octan-6-yl)-3-quinolinecarbonitrile|7-methoxy-4-(5-methyl-1H-indazol-4-yl)-2-((5S)-5-methyl-2-(2-propenoyl)-2,6-diazaspiro[3.4]octan-6-yl)-3-quinolinecarbonitrile], the IC50 against KRAS G12C was 111 nM; in experiment [1] (Homo sapiens, MIA PaCa-2, 72 h), 447 nM; in experiment [2] (Homo sapiens, A549, 72 h) it was over 5000 nM.
On the same counts, the results for `C=CC(=O)N1CC2(CCN(c3nc4c(c(-c5c(C)ccc6cn[nH]c56)c3C)CC[C@H](c3c(C)cnn3C)C4)C2)C1` (single isomer, unassigned) [Example 14-97] are 208 nM, 254 nM and 10000 nM.
Take `C=CC(=O)N1CC2(CCN(c3nc4ccccc4c(-c4cccc5sc(N)nc45)c3C#N)C2)C1` [Example 2-3, 4-(2-amino-1,3-benzothiazol-4-yl)-2-(2-(2-propenoyl)-2,6-diazaspiro[3.4]octan-6-yl)-3-quinolinecarbonitrile]: the IC50 was determined as 537 nM on KRAS G12C (setting [3]); 693 nM in experiment [1] (Homo sapiens, MIA PaCa-2, 72 h); 3120 nM in experiment [2] (Homo sapiens, A549, 72 h).
Turning to `C=CC(=O)N1CC2(CCN(c3nc4c(c(-c5c(C)c(Cl)cc6cnn(C)c56)c3C)COC(C)(C)C4)C2)C1` [Example 14-87, 1-(6-(4-(5-chloro-1,6-dimethyl-1H-indazol-7-yl)-3,7,7-trimethyl-7,8-dihydro-5H-pyrano[4,3-b]pyridin-2-yl)-2,6-diazaspiro[3.4]octan-2-yl)-2-propen-1-one], the IC50 was 39 nM against KRAS G12C; 68 nM in experiment [1] (Homo sapiens, MIA PaCa-2, 72 h); over 5000 nM in experiment [2] (Homo sapiens, A549, 72 h).
Take `C=CC(=O)N1CC2(CCN(c3nc4c(c(-c5ccccc5Cl)c3C#N)CCN(c3scnc3C)C4)C2)C1` (single isomer, unassigned) [Example 21-23, (M)-4-(2-chlorophenyl)-7-(4-methyl-1,3-thiazol-5-yl)-2-(2-(2-propenoyl)-2,6-diazaspiro[3.4]octan-6-yl)-5,6,7,8-tetrahydro-1,7-naphthyridine-3-carbonitrile]: the IC50 is 114 nM against KRAS G12C, 619 nM in experiment [1] (72 h) and over 5000 nM in experiment [2] (72 h).
`C=CC(=O)N1CC2(CCN(c3nc4c(c(-c5ccccc5F)c3C#N)CCN(C(=O)[C@@H]3CCCN3C)C4)C2)C1` [Example 21-34, 4-(2-fluorophenyl)-7-(1-methyl-L-prolyl)-2-(2-(2-propenoyl)-2,6-diazaspiro[3.4]octan-6-yl)-5,6,7,8-tetrahydro-1,7-naphthyridine-3-carbonitrile]: the IC50 was 911 nM at KRAS G12C; 6290 nM in experiment [1] (Homo sapiens, MIA PaCa-2, 72 h); over 25000 nM in experiment [2] (Homo sapiens, A549, 72 h).
Turning to `C=CC(=O)N1CC2(CCN(c3nc4c(C)cccc4c(-c4c(C)ccc5[nH]ncc45)c3C#N)C2)C1` [Example 1-6, 8-methyl-4-(5-methyl-1H-indazol-4-yl)-2-(2-(2-propenoyl)-2,6-diazaspiro[3.4]octan-6-yl)-3-quinolinecarbonitrile], the half-inhibitory concentration (IC50) on KRAS G12C (setting [3]) was 1890 nM; in experiment [1] (Homo sapiens, MIA PaCa-2, 72 h), 1140 nM; in experiment [2] (Homo sapiens, A549, 72 h) it was 6440 nM.
With `C=CC(=O)N1CC2(CCN(c3nc4c(c(-c5ccccc5F)c3C#N)CCN(c3scnc3C)C4C)C2)C1` [Example 21-4, (8R)-4-(2-fluorophenyl)-8-methyl-7-(4-methyl-1,3-thiazol-5-yl)-2-(2-(2-propenoyl)-2,6-diazaspiro[3.4]octan-6-yl)-5,6,7,8-tetrahydro-1,7-naphthyridine-3-carbonitrile (8S)-4-(2-fluorophenyl)-8-methyl-7-(4-methyl-1,3-thiazol-5-yl)-2-(2-(2-propenoyl)-2,6-diazaspiro[3.4]octan-6-yl)-5,6,7,8-tetrahydro-1,7-naphthyridine-3-carbonitrile], the 50% inhibitory concentration (IC50) at KRAS G12C is 85 nM; in experiment [1] (Homo sapiens, MIA PaCa-2, 72 h), 1610 nM; in experiment [2] (Homo sapiens, A549, 72 h) it was 10100 nM.
Consider `C=CC(=O)N1CC2(CCN(c3nc4c(c(-c5cccc6cc(O)ccc56)c3C)CCN(C(C)C)C4)C2)C1` (single isomer, unassigned) [Example 18-4, (P)-1-(6-(4-(6-hydroxy-1-naphthalenyl)-3-methyl-7-(2-propanyl)-5,6,7,8-tetrahydro-1,7-naphthyridin-2-yl)-2,6-diazaspiro[3.4]octan-2-yl)-2-propane-1-one], for which the IC50 against KRAS G12C was 17 nM; in experiment [1] (Homo sapiens, MIA PaCa-2, 72 h) it was 12 nM; in experiment [2] (Homo sapiens, A549, 72 h), over 5000 nM.

The record behind these values is patent US20240059703A1 (AMGEN INC., priority 2021, published 2024).
